Earlier results, collected in patent US10786520B2, “Aminoglycoside derivatives and uses thereof in treating genetic disorders” (Eloxx Pharmaceuticals Ltd., priority 2015, dated 2020).

Test system: human fibroblast cells

## CN[C@@H]1[C@@H](O)[C@@H](O[C@@H]2[C@@H](O)[C@H](O[C@H]3O[C@H]([C@@H](C)O)[C@@H](O)[C@H](O)[C@H]3N)[C@@H](N)C[C@H]2N)OC[C@]1(C)O [Compound G-418, G-418]
  LD50 against human fibroblast cells: 0.04 mg/mL
